Experimental data as given in US4939134A, “26-aminocholesterol and derivatives and analogs thereof in the regulation of cholesterol accumulation in body tissue” (New York University, priority 1988, dated 1990).
“Also recorded” adds a separate entry of the source.

Tests used:
Human Fibroblasts = assay: De novo cholesterol synthesis in human fibroblasts (D2O); format: cell-based; settings: for % DE NOVO (De Novo Cholesterol Synthesis): 96 h, n = 3, untreated 19.0
Protocol: Normal LDLR(+) human fibroblasts (GM3440) were obtained from the National Institute of General Medical Sciences Human Genetic Cell Repository. Stock fibroblast monolayers were maintained in T-75 disposable Nunc flasks, in a medium comprising 10 ml of MEM (Eagle's Minimum Essential Medium with Earl's salts, pH 7.4) supplemented with 10% (v/v) fetal bovine serum (FBS), 2% (v/v) non-essential and essential amino acids, 1% (v/v) MEM vitamins, 1% L-glutamine (292 ug/ml), 1% penicillin (100 U/ml)-streptomycin (100 ug/ml). The fibroblast stock was maintained at 37° C. in a humidified atmosphere of 5% CO2 and 95% air.
For experiments using fibroblasts, confluent stock cultures (5-18 passages) were washed once with Dulbecco's PBS (phosphate buffered saline) prior to the addition of 3 ml aliquots of experimental MEM containing 25% (v/v) D2 O, 9% (v/v) dilapidated FBS, 1% FBS (v/v), 1% MEM vitamins and L-glutamine, and 2% of essential and non-essential amino acids and 20 mM HEPES buffer.
(§1) The fibroblast and hepatoblastoma cells were cultured in media containing 25% D2 O and 1% FBS in order to determine de novo cholesterol synthesis under conditions that permit receptor mediated cholesterol transport, according to the method of Easterman & Javitt et al., J. Lipid Res., 26: 950-954 (1985). Dish cultures of each cell type were prepared, and 26-aminocholesterol, dissolved in N,N-dimethylformamide (DMF, 9 ul per dish, 0.3% v/v) was added to each culture. The cells were then grown to confluence (96 hours, day 5). […] Duplicate or triplicate dishes containing 9 ul of DMF, but without 26-aminocholesterol, were used as controls.
(§2) After 96 hours of incubation, medium was removed from the cell cultures, and the cells were washed with Dulbecco's PBS and were harvested with 0.05% trypsin - 0.02% EDTA. The protease was deactivated with an equivolume aliquot of soybean trypsin inhibitor, and the resulting cell suspension was centrifuged for 5 minutes at 500xg. An internal standard of 5B-cholestan-3B-ol was added to the pellets prior to extraction with an 8:4:3 chloroform:methanol:water Folch mixture, as described in Folch et al., J. Biol. Chem., 266: 497-509 (1957). An aliquot of the extract was blown to dryness under nitrogen and silylated with 2:1:1 MSTFA (a sylated reagent supplied by Pierce Co.): toluene:-pyridine. Free cholesterol was determined by gas-liquid chromatography (GLC) on a Perkin-Elmer capillary gas-liquid chromatography model 8320 fitted with a 20 m DE-1 methylsilicon glass column (Supelco). The remaining extract was dried and saponified with 2% ethanolic KOH at 80° C. for one hour. The […] was then re-extracted and total cholesterol was measured by GLC after silylation. Cholesterol ester was calculated as the difference between the total and free cholesterol determinations. Newly synthesized cholesterol was determined by GLC-MS isotope mass ratios, using a Hewlett-Packard GC-MS spectrometer model 5890 fitted with DB-1 methyl silicon 0.18 i.d. 20 m glass column (Supelco), according to the method of J. Lipid. Res., 26: 950-954, supra. […]

HepG2 Cells [1] = assay: Total 125I-LDL binding to HepG2 cells; format: cell-based, human; settings: for I-LDL BINDING: HepG2, 10 ug/ml 125I-LDL, 4 h, 4° C., n = 3, untreated 36.0; for LDL-binding (in words): HepG2 / hepatic cells
Description: (§3) HepG2 cells were obtained from Dr. Barbara Knowles of the Wistar Institute, Pennsylvania. The HepG2 stock monolayers were maintained under the same conditions as the fibroblast monolayers, in a medium comprising MEM supplemented with 10% heat-inactivated FBS, and 1% (v/v) each of penicillin-streptomycin solution, non-essential and essential amino acids, and L-glutamine.
(§4) For experiments using HepG2 cells, confluent stock monolayers were washed once with Dulbecco's PBS, dissociated with 0.05-0.02% trypsin-EDTA followed by treatment with deoxyribonuclease I (0.1%), and were seeded (3.0×10^6) under identical conditions. The experimental MEM contained 25% (v/v) D2 O, 9% (v/v) delipidated FBS, and 1% (v/v) each of heat-inactivated FBS, penicillin-streptomycin, essential and non-essential amino acids, L-glutamine and 20 mM HEPES.
as §1
LDL (d, 1.019-1.03) was isolated by sequential preparative ultracentrifugation of normal human plasma, using solid KBr for density adjustment, according to the methods of Havel et al., J. Clin. Invest., 34: 1345-1353 (1955) and Radding & Steinberg, J Clin. Invest., 39: 1560-1569 (1960). The isolated LDL was then iodinated with ^125 INa by the monochloride procedure of McFarlane, Nature, 102: 53 (1958), as modified for lipoproteins according to Bilheimer et al., Biochim. Biophys. Acta. 260: 212-221 (1972). To remove free iodine, the LDL preparation was subjected to column chromatography on a Sephadex G-25M disposable mini-column (Pharmacia PD-10) and was dialized against 0.15 M NaCl and […] EDTA, pH 7.4. The specific activity of all LDL preparations ranged between 160-300 cpm/mg of LDL proteins. ^125 I-LDL was stored at 4° C. and was sterilized by filtration through a 0.45 um membrane just prior to incubation with the treated fibroblast and hepatoblastoma cell cultures and control cultures.
For binding studies, a fixed concentration of 10 ug/ml of ^125 I-LDL was added directly to the monolayers of the confluent culture medium (at or near the 96th hour) and incubation was continued for a further 4 hours at 37° C. for fibroblasts and 4° C. for HepG2 cells. After this incubation, the culture dishes were placed on ice, the medium was removed, and the cell monolayers were washed as described in Goldstein & Brown, J. Biol. Chem., 249: 5153-5162 (1974). The monolayers were then scraped off the dishes with a teflon policeman and were solubilized with 1 ml of 0.1 N NaOH.
Cell-associated radioactivity was measured in a Packard auto gamma scintillation spectrometer Model 5160, and cell protein was measured by the method of Lowry et al., J. Biol. Chem., 193: 265-275 (1951), using bovine serum albumin as a standard. Total ^125 I-LDL binding was expressed as the mass of ^125 I-LDL (mg) per mg of cell protein. […]

HepG2 Cells [2] = assay: De novo cholesterol synthesis in HepG2 hepatocytes (D2O); format: cell-based, human; settings: for % DE NOVO (De Novo Cholesterol Synthesis): HepG2, 96 h, n = 3, untreated 55.8; for de novo cholesterol synthesis (in words): HepG2 / human hepatocytes
Description: as §3, §4, §1, §2

Row | Compound | de novo cholesterol synthesis (in words) (Human Fibroblasts) | % DE NOVO (De Novo Cholesterol Synthesis) (Human Fibroblasts; 0.625 uM) [%] | I-LDL BINDING (HepG2 Cells [1]; 0.625 uM) | LDL-binding (in words) (HepG2 Cells [1]) | % DE NOVO (De Novo Cholesterol Synthesis) (HepG2 Cells [2]; 0.625 uM) [%] | de novo cholesterol synthesis (in words) (HepG2 Cells [2]) | further results
1 | CC(CO)CCC[C@@H](C)[C@H]1CC[C@H]2[C@@H]3CC=C4C[C@@H](O)CC[C@]4(C)[C@H]3CC[C@]12C (stereo partly drawn) [26-OH, 26-hydroxycholesterol] | significant reductions | 3.9 | 53.6 +/- 1.3 ug LDL protein per mg cell pro | do not provide a similar reduction | 57.1 | do not provide a similar reduction | 
2 | CC(CS)CCC[C@@H](C)[C@H]1CC[C@H]2[C@@H]3CC=C4C[C@@H](O)CC[C@]4(C)[C@H]3CC[C@]12C (stereo partly drawn) [26-SH] | no impact |  |  | no impact |  | no impact | % DE NOVO (De Novo Cholesterol Synthesis) (Human Fibroblasts; 5.0 uM): 27.8%; % DE NOVO (De Novo Cholesterol Synthesis) (Human Fibroblasts; 10.0 uM): 21.9%; % DE NOVO (De Novo Cholesterol Synthesis) (Human Fibroblasts; 20.0 uM): 13.6%; I-LDL BINDING (HepG2 Cells [1]; 5.0 uM): 37.8 +/- 3.4 ug LDL protein per mg cell pro; I-LDL BINDING (HepG2 Cells [1]; 10.0 uM): 45.8 +/- 3.9 ug LDL protein per mg cell pro; I-LDL BINDING (HepG2 Cells [1]; 20.0 uM): 35.7 +/- 4.8 ug LDL protein per mg cell pro; % DE NOVO (De Novo Cholesterol Synthesis) (HepG2 Cells [2]; 5.0 uM): 49.7%; % DE NOVO (De Novo Cholesterol Synthesis) (HepG2 Cells [2]; 10.0 uM): 47.9%; % DE NOVO (De Novo Cholesterol Synthesis) (HepG2 Cells [2]; 20.0 uM): 41.9%
3 | C[C@@H](CN)CCC[C@@H](C)[C@H]1CC[C@H]2[C@@H]3CC=C4C[C@@H](O)CC[C@]4(C)[C@H]3CC[C@]12C [26-NH2, 26-aminocholesterol] | significant reductions | 2.7 | 52.4 +/- 8.8 ug LDL protein per mg cell pro | do not provide a similar reduction; also recorded: little or no effect; also recorded: no impact | 42.0 | do not provide a similar reduction; also recorded: no impact | % DE NOVO (De Novo Cholesterol Synthesis) (Human Fibroblasts; 0.156 uM): 16.7%; % DE NOVO (De Novo Cholesterol Synthesis) (Human Fibroblasts; 0.312 uM): 10.0%; I-LDL BINDING (HepG2 Cells [1]; 0.156 uM): 40.9 +/- 3.1 ug LDL protein per mg cell pro; I-LDL BINDING (HepG2 Cells [1]; 0.312 uM): 43.9 +/- 4.0 ug LDL protein per mg cell pro; % DE NOVO (De Novo Cholesterol Synthesis) (HepG2 Cells [2]; 0.156 uM): 38.3%; % DE NOVO (De Novo Cholesterol Synthesis) (HepG2 Cells [2]; 0.312 uM): 45.1%
